Reference: patent US8911342B2, “Apparatus and method for pulsed electrical field treatment” (Re5 ApS, priority 2009, dated 2014)

Test system: Human neural cells line from sympatic ganglia - SHSY-5Y
Conditions: sertraline 10 μM 24 hours, then PEMF 2 hrs at 50 or 55 Hz, vs control cells, PCR array

With CN[C@H]1CC[C@@H](c2ccc(Cl)c(Cl)c2)c2ccccc21 [sertraline, (1S,4S)-4-(3,4-dichlorophenyl)-N-methyl-1,2,3,4-tetrahydronaphthalen-1-amine] as the molecule, how does the “Fold increase in mRNA, Bone morphonogenic Protein 1 (BMP1)” value read?
Its value is 4 fold.

What about the “Fold increase in mRNA, Bone morphonogenic Protein 5 (BMP5)” value of the same molecule?
The value was 8 fold.

And the “Fold increase in mRNA, IL-17B” value?
The value was 8 fold.

And the “Fold increase in mRNA, IL-18” value?
The value was 4 fold.

What about the “Fold increase in mRNA, IL-20” value of the same molecule?
Its value is 4 fold.

What about the “Fold increase in mRNA, IL-21” value of the same molecule?
Its value is 4 fold.

And the “Fold increase in mRNA, Il-8” value?
Its value is 8 fold.

What about the “Fold increase in mRNA, Interleukin 10 (IL-10)” value of the same molecule?
The value was 1 fold.

What about the “Fold increase in mRNA, TNF SF10” value of the same molecule?
The value was 8 fold.

And the “Fold increase in mRNA, TNF SF11” value?
The value was 2 fold.

What about the “Fold increase in mRNA, TNFR SF11” value of the same molecule?
The value was 8 fold.

And the “Fold increase in mRNA, Transforming growth factor beta 3 (TGFB3)” value?
The value was 5 fold.

And the “Fold increase in mRNA, Tumor necrosis factor (TNF)” value?
Its value is 8 fold.
